Values of other authors, collected in patent US20100239661A1, “PHARMACEUTICAL COMPOSITIONS OF URSODIOL” (priority 2006, published 2010).
Read-outs that look alike come from different tables or passages of the source.

How the values were obtained:
[1] = for oral absorption: following oral administration
[2] = not given; remark: listed apart in the source
[3] = unconjugated ursodiol, healthy subjects

share of biliary and plasma bile acids ([1]; chronic dose of 13 to 15 mg/kg/day): 30-50%
oral absorption [1]: rapid and complete
oral absorption ([1]; listed as ursodiol): incomplete
hepatic extraction ([1]; once absorbed, in the absence of liver disease): about 50%
urinary excretion ([1]; with treatment, except in severe cholestatic liver disease): less than 1%
solubility (in chloroform): slightly soluble
solubility (in ethanol): freely soluble
solubility (in ether): sparingly soluble
solubility (in glacial acetic acid): freely soluble
solubility (in water): practically insoluble
solubility (characterisation) [2]: low solubility
bound to plasma protein [3]: at least 70%
SMILES: C[C@H](CCC(=O)O)[C@H]1CC[C@H]2[C@@H]3[C@@H](O)C[C@@H]4C[C@H](O)CC[C@]4(C)[C@H]3CC[C@]12C [Ursodiol, 3α,7β-dihydroxy-5β-cholan-24-oic acid]
